This passage reports EC50 results from patent US20150087673A1, “METHODS FOR USING AND BIOMARKERS FOR AMPK-ACTIVATING COMPOUNDS” (RIGEL PHARMACEUTICALS, INC., priority 2013, published 2015).

A value given as a limit tells only on which side of the number the result lay.

The test system of the experiment is AMPK. In words: AMPK activation assay (enzyme-linked immunosorbent assay). The format is cell-based. The method in brief: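 Test compounds were added, and kinase activation was then detected by immunoassay following established kit procedures.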
The compound `O=C(Nc1ccc(Oc2ccc(F)cc2)nc1)c1ccc(C(=O)N2CCC(C(=O)c3ccc(F)c(F)c3)CC2)cn1` [Compound 330, 5-(4-(3,4-difluorobenzoyl)piperidine-1-carbonyl)-N-(6-(4-fluorophenoxy)pyridin-3-yl)picolinamide] displayed an EC50 of 500 to 1000 nM.
Then `O=C(N[C@H]1CC[C@@H](Oc2ccc(F)cc2)CC1)c1ccc(C(=O)N2CCC(Oc3ccc(F)cc3)CC2)cn1` [Compound 312, N-((cis)-4-(4-fluorophenoxy)cyclohexyl)-5-(4-(4-fluorophenoxy)piperidine-1-carbonyl)picolinamide], with below 500 nM; and `N#Cc1ccc(CN2CCC(NC(=O)c3ccc(C(=O)N4CCC(C(=O)c5ccc(-n6cccn6)cc5)CC4)cn3)CC2)cc1` [Compound 375, 5-(4-(4-(1H-pyrazol-1-yl)benzoyl)piperidine-1-carbonyl)-N-(1-(4-cyanobenzyl)piperidin-4-yl)picolinamide], with below 500 nM.
On to `N#Cc1ccc(-c2ccc(NC(=O)c3ccc(C(=O)N4CCN(Cc5ccc(F)cc5)CC4)cn3)cc2)cc1` [Compound 24, N-(4-(4-cyanophenyl)phenyl)-5-(4-(4-fluorobenzyl)piperazine-1-carbonyl)picolinamide], for which the half-maximal effective concentration (EC50) is below 500 nM.
Then `COc1ccc(C(=O)C2CCN(C(=O)c3ccc(C(=O)Nc4ccc(Oc5ccc(C#N)cc5)cn4)cn3)CC2)cc1` [Compound 468, N-(5-(4-cyanophenoxy)pyridin-2-yl)-6-(4-(4-methoxybenzoyl)piperidine-1-carbonyl)nicotinamide], with below 500 nM.
The same measure for `COc1ccc(S(=O)(=O)N2CCN(C(=O)c3ccc(C(=O)NC4CCN(Cc5ccc(C#N)cc5)CC4)nc3)CC2)cc1` [Compound 79, N-(1-(4-cyanobenzyl)piperidin-4-yl)-5-(4-(4-methoxyphenylsulfonyl)piperazine-1-carbonyl)picolinamide]: 500 to 1000 nM; for `N#Cc1ccc(CN2CC[C@H](NC(=O)c3ccc(C(=O)N4CCN(Cc5ccc(F)cc5)CC4)cn3)C2)cc1` [Compound 123, (S)-N-(1-(4-cyanobenzyl)pyrrolidin-3-yl)-5-(4-(4-fluorobenzyl)piperazine-1-carbonyl)picolinamide]: below 500 nM; for `COc1ccc(CN2CCC(NC(=O)c3ccc(C(=O)N4CCC(C(=O)c5ccc(N6CCCC6)cc5)CC4)nc3)CC2)cc1` [Compound 439, N-(1-(4-methoxybenzyl)piperidin-4-yl)-6-(4-(4-(pyrrolidin-1-yl)benzoyl)piperidine-1-carbonyl)nicotinamide]: below 500 nM.
As for `O=C(c1ccc(-c2ccc(OCc3ccccc3)cc2)nc1)N1CCN(Cc2ccc(F)cc2)CC1` [Compound 17, (4-(4-fluorobenzyl)piperazin-1-yl)(6-(4-(benzyloxy)phenyl)pyridin-3-yl)methanone], the EC50 was above 10000 nM.
The same measure for `N#Cc1ccc(CN2CCC(NC(=O)c3ccc(C(=O)N4CCC(C(O)c5ccc(F)cc5)CC4)cn3)CC2)cc1` (centres unmarked) [Compound 142, N-(1-(4-cyanobenzyl)piperidin-4-yl)-5-(4-((4-fluorophenyl)(hydroxy)methyl)piperidine-1-carbonyl)picolinamide]: below 500 nM; for `COc1ccc(OC2CCN(C(=O)c3ccc(C(=O)NC4CCN(Cc5ccc(C#N)cc5)CC4)cn3)CC2)c(NC(C)=O)c1` [Compound 383, 6-(4-(2-acetamido-4-methoxyphenoxy)piperidine-1-carbonyl)-N-(1-(4-cyanobenzyl)piperidin-4-yl)nicotinamide]: above 10000 nM; for `N#Cc1ccc(CN2CCC(NC(=O)c3ccc(C(=O)N4CCC(Oc5ccc(SC(F)(F)F)cc5)CC4)nn3)CC2)cc1` [Compound 436, N-(1-(4-cyanobenzyl)piperidin-4-yl)-6-(4-(4-(trifluoromethylthio)phenoxy)piperidine-1-carbonyl)pyridazine-3-carboxamide]: below 500 nM.
Then `CS(=O)(=O)c1ccc(OC2CCN(C(=O)c3cnc(C(=O)Nc4ccc(Oc5ccc(F)cc5)nc4)cn3)CC2)cc1` [Compound 207, N-(6-(4-fluorophenoxy)pyridin-3-yl)-5-(4-(4-(methylsulfonyl)phenoxy)piperidine-1-carbonyl)pyrazine-2-carboxamide], with below 500 nM.
`O=C(Nc1ccc(Cc2ccccc2)cc1)c1ccc(C(=O)N2CCN(Cc3ccc(F)cc3)CC2)cn1` [Compound 10, N-(4-benzylphenyl)-5-(4-(4-fluorobenzyl)piperazine-1-carbonyl)picolinamide] registered an EC50 below 500 nM.
For `CN1CCN(c2ccc(C(=O)C3CCN(C(=O)c4ccc(C(=O)Nc5ccc(Oc6ccc(F)cc6)nc5)cn4)CC3)cc2)CC1` [Compound 245, N-(6-(4-fluorophenoxy)pyridin-3-yl)-6-(4-(4-(4-methylpiperazin-1-yl)benzoyl)piperidine-1-carbonyl)nicotinamide], the EC50 is below 500 nM.
`O=C(NC1CCN(Cc2cccc(OC(F)(F)F)c2)CC1)c1ccc(C(=O)N2CCC(C(=O)c3ccc(N4CCCC4)cc3)CC2)nc1` [Compound 441, 6-(4-(4-(pyrrolidin-1-yl)benzoyl)piperidine-1-carbonyl)-N-(1-(3-(trifluoromethoxy)benzyl)piperidin-4-yl)nicotinamide] showed an EC50 below 500 nM.
The same measure for `COc1ccc(C(=O)C2CCN(C(=O)c3ccc(C(=O)Nc4ccc(S(=O)(=O)c5ccc(F)cc5)nc4)cn3)CC2)cc1` [Compound 467, N-(6-(4-fluorophenylsulfonyl)pyridin-3-yl)-6-(4-(4-methoxybenzoyl)piperidine-1-carbonyl)nicotinamide]: 1000 to 5000 nM.
Regarding `COc1ccc(C(=O)C2CCN(C(=O)c3ccc(C(=O)Nc4ccc(Oc5ccc(S(C)(=O)=O)cc5)nc4)cn3)CC2)cc1` [Compound 465, 6-(4-(4-methoxybenzoyl)piperidine-1-carbonyl)-N-(6-(4-(methylsulfonyl)phenoxy)pyridin-3-yl)nicotinamide], the EC50 was below 500 nM.
Then `N#Cc1ccc(CN2CCC(NC(=O)c3ccc(C(=O)N4CCC(C(=O)c5ccc(N=[N+]=[N-])cc5)CC4)nc3)CC2)cc1` [Compound 240, 6-(4-(4-azidobenzoyl)piperidine-1-carbonyl)-N-(1-(4-cyanobenzyl)piperidin-4-yl)nicotinamide], with below 500 nM.
The same measure for `CC(=O)c1ccc(Oc2ccc(NC(=O)c3ccc(C(=O)N4CCC(C(=O)c5ccc(F)cc5F)CC4)nc3)cn2)cc1` [Compound 464, N-(6-(4-acetylphenoxy)pyridin-3-yl)-6-(4-(2,4-difluorobenzoyl)piperidine-1-carbonyl)nicotinamide]: below 500 nM; for `O=C(Nc1cccc(-c2ccccc2)c1)c1ccc(C(=O)NC2CCN(Cc3ccccc3)CC2)nc1` [Compound 106, N2-(1-benzylpiperidin-4-yl)-N5-(biphenyl-3-yl)pyridine-2,5-dicarboxamide]: 5000 to 10000 nM.
The same measure for `CC1(C)CN(C(=O)c2ccc(C(=O)NC3CCN(Cc4ccc(C#N)cc4)CC3)nc2)CCN1Cc1ccc(F)cc1` [Compound 125, N-(1-(4-cyanobenzyl)piperidin-4-yl)-5-(4-(4-fluorobenzyl)-3,3-dimethylpiperazine-1-carbonyl)picolinamide]: below 500 nM.
In turn, `N#Cc1ccc(CNC(=O)c2cccc(-c3ccc(C(=O)N4CCN(Cc5ccc(F)cc5)CC4)cn3)c2)cc1` [Compound 42, (6-(3-(4-cyanobenzylcarbamoyl)phenyl)pyridin-3yl)(4-(4-fluorobenzyl)piperazin-1-yl)methanone] yielded an EC50 of 1000 to 5000 nM.
